Experimental data from US10898498B2, “Slow release oxysterols and methods of use” (Warsaw Orthopedic, Inc., priority 2015, dated 2021).
Entries after “also recorded” stand apart in the source; their conditions may differ.

Key:
[1] = test system: rat two-level spine model (posterolateral space, L3-L5); test: Rat two-level posterolateral spine fusion model, implants placed bilaterally; radiographs and manual palpation; format: in vivo; settings: for bone growth / bridging bone on radiographs: 4-week and 8-week timepoints; for spinal fusion by manual palpation evaluation of the spine segments: 8 weeks; for fusion observed (share of rat spines fused, manual palpation): matrix of Oxy133, collagen and ceramic wetted with sterile water, bilateral, 8-week sacrifice, 5/5 spines
Description: FIG. 6 illustrates uses of a formulation of malleable implants having 20 mg of Oxy133 on each side of the implant, in accordance with the malleable implants described herein. […] A dry composition of a matrix containing Oxy133, collagen and ceramic as described herein was prepared and wetted with sterile water to be implanted in rat spines as shown in FIG. 6. The wetted matrix was cut in half with a razor blade to yield two halves. The two implants were molded into cylindrical shapes prior to insertion and were positioned bilaterally in the posterolateral space of each test subject. Each implant contained 20 mg Oxy133. Radiographs were taken roughly 10 minutes after the procedure, 4 weeks after the procedure, and 8 weeks after the procedure. […] Fusion was tested at 8-week sacrifice by manual palpation. […] A dry composition of a matrix containing Oxy133, collagen and ceramic as described herein was prepared and wetted with sterile water to be implanted in rat spines as shown in FIG. 6. The wetted matrix was cut in half with a razor blade to yield two halves. The two implants were molded into cylindrical shapes prior to insertion and were positioned bilaterally in the posterolateral space of each test subject. Each implant contained 125 mg Oxy133. Radiographs were taken roughly 10 minutes after the procedure, 4 weeks after the procedure, and 8 weeks after the procedure. […] Fusion was tested at 8-week sacrifice by manual palpation.

[2] = test system: multipotent mesenchymal cells such as M2-10B4 (M2) marrow stromal cells and C3H10T1/2 embryonic fibroblasts; settings: M2-10B4 marrow stromal cells and C3H10T1/2 embryonic fibroblasts; cited from earlier work

SMILES: CCCCCC[C@](C)(O)[C@H]1CC[C@H]2[C@@H]3C[C@H](O)[C@H]4C[C@@H](O)CC[C@]4(C)[C@H]3CC[C@@]21C [Oxy133, (3S,5S,6S,8R,9S,10R,13S,14S,17S)-17-((S)-2-hydroxyoctan-2-yl)-10,13-dimethylhexadecahydro-1H-cyclopenta[a]phenanthrene-3,6-diol]
- bone growth / bridging bone on radiographs ([1]; each implant 20 mg Oxy133): Bone growth in rat test subjects can be seen; also recorded: promoted bridging bone across the transverse processes of L3-L5
- spinal fusion by manual palpation evaluation of the spine segments ([1]; each implant 20 mg Oxy133): yielded spinal fusion; also recorded: limited flexibility
- bone growth / bridging bone on radiographs ([1]; each implant 125 mg Oxy133): Bone growth in rat test subjects can be seen; also recorded: promoted bridging bone across the transverse processes of L3-L5
- spinal fusion by manual palpation evaluation of the spine segments ([1]; each implant 125 mg Oxy133): yielded spinal fusion; also recorded: limited flexibility
- fusion observed (share of rat spines fused, manual palpation) ([1]; each implant 20 mg Oxy133): 100%
- fusion observed (share of rat spines fused, manual palpation) ([1]; each implant 125 mg Oxy133): 100%

SMILES: CC(C)CC[C@H](O)[C@@H](C)[C@H]1CC[C@H]2[C@@H]3CC=C4C[C@@H](O)CC[C@]4(C)[C@H]3CC[C@]12C [22(S)-hydroxycholesterol]
- osteogenic differentiation [2]: induce osteogenic differentiation

SMILES: CC(C)CC[C@@H](O)[C@@H](C)[C@H]1CC[C@H]2[C@@H]3CC=C4C[C@@H](O)CC[C@]4(C)[C@H]3CC[C@]12C [22(R)-hydroxycholesterol]
- osteogenic differentiation [2]: induce osteogenic differentiation

SMILES: CC(C)CCC[C@](C)(O)[C@H]1CC[C@H]2[C@@H]3CC=C4C[C@@H](O)CC[C@]4(C)[C@H]3CC[C@@]21C [20(S)-hydroxycholesterol]
- osteogenic differentiation [2]: induce osteogenic differentiation
